Laboratory results from US11980598B2, “N-(2-(substituted-naphth-1-yl)ethyl) substituted amide compound, preparation and uses thereof” (BEIJING GREATWAY PHARMACEUTICAL TECHNOLOGY CO., LTD., priority 2017, dated 2024).

Key:
chronic stress rat = experiment: Chronic unpredictable stress model of rat: sucrose preference test; assay type: in vivo; settings: for Sucrose preference (%) Before modeling: baseline before modeling; for Sucrose preference (%) After 4 weeks of administration: stress rats
Procedure: Animals: SD rats, male, weighing 150-180 g, SPF grade.
Formulation and administration mode of drugs: All drugs for the test were suspended and dispersed with a 0.5% aqueous solution of CMC-Na, and shaken well before use. The rats were administered by i.g. at a volume of 10 mL/kg.
Rats were acclimatized for 3 days after purchase. First, 48 h of sucrose training was performed. After the training, a sucrose baseline test was performed. The rats were randomly and evenly grouped according to sucrose preference. Then, (dl) a 4-week chronic unpredictable stress (CUS) procedure was performed with the following stress methods: (1) food deprivation (fasting); (2) water deprivation; (3) stroboflash; (4) overnight illumination; (5) wet feeding (200 ml of water was added to 150 g of sawdust bedding); (6) noise stimulation (110 dB), 1 h; (7) swimming in cold water (the water temperature was 10° C.); (8) cage tilt (45 degrees of inclination); (9) tail pinch (at 1 cm away from the tail root) for 6 min; (10) restraint for 1-2 h. One of the above stress methods was used randomly every day, but water deprivation and fasting were separated. The corresponding drugs (including the blank control group and the positive drug group) were given 1 h before the stress in the morning every day. Behavior test was performed after the end of the chronic stress. d25, sucrose preference; d28, open-field; d31, novelty-suppressed feeding test.
Rats were acclimatized for 3 days after purchase. The rats were trained to give sucrose aqueous solution for 48 h without food and water supply, only 1% aqueous solution of sucrose was given for the first 24 h, and 1% aqueous solution of sucrose and tap water were simultaneously given for the next 24 h. After the end of the training, the rats were fed with normal food and water for 3 days, and then a sucrose preference baseline was determined: after fasting and water deprivation for 14 h, rats were allowed to drink freely two different bottles of water, one of which was 1% aqueous solution of sucrose and the other was tap water. The intakes (g) of rats from these two bottles within 1 hour were measured to calculate the sucrose preference. Sucrose preference (%)=intake of aqueous solution of sucrose/(intake of aqueous solution of sucrose+intake of tap water)×100%. On the 25th day of the stress program, the same method was used to perform the sucrose preference test again to calculate the sucrose preference.

SD rats [1] = experiment: Anxiety behavior model of repeatedly administrated rat: O-maze test; assay type: in vivo; settings: D21, 5 minutes
Procedure: (§1) The requirements for test animals, drug formulation and administration were the same as those of the rat chronic mild stress model.
(§2) Instruments: Vogel drinking anxiety device for rat and O-maze device for rat were manufactured by Shanghai XinRuan Company. The rat feeding chamber was a home-made white plastic box (60×45×25 cm).
(§3) The rats were administrated continuously by i.g. once a day. A novelty-suppressed feeding test, a Vogel drinking conflict test, and an O-maze test were performed on a different day, respectively. Each behavior test was performed at 9:00-12:00, and the administration time was 16:00-17:00. The test process was as follows: D12, novelty-suppressed feeding test (animals were fasted for 48 hours before the test); D18, Vogel drinking conflict test (animals were banned from water for 48 hours before the test); D21, O-maze test.
An O-maze device was placed in the center of a dark room and illuminated with an infrared light during the test. The animal was placed in the center of a closed arm of an O-maze track, timed for 5 minutes, and the activity of the rat in the maze was monitored by an infrared camera. Animals in each group were given a single intragastric administration 60 min before the test. Observation indicators were the number of times the rat entered the open arm and the accumulated dwell time in the open arm.

[2] = cited from earlier work
CYP2C9 = CYP2C9 (Homo sapiens (Human), UniProt P11712); settings: first-pass effect of the liver; cited from earlier work
[3] = background statement; cited from earlier work
SD rats [4] = experiment: Anxiety behavior model of repeatedly administrated rat: Vogel drinking conflict test; assay type: in vivo; settings: D18, within 3 minutes
Procedure: as §1, §2, §3
The Vogel drinking anxiety device for rat connected a drinking tube of a water bottle, an electric grid and a current loop of a controller through the animal body when rat drank water. The controller can automatically record the number of times the animal drank water and can deliver an electric shock to foot sole. The rat was individually placed in the test chamber after 48 hours of water deprivation. When the animal drank 20 times in the test chamber, the controller started timing for 3 minutes, and every 20 times the rat drank, one electric shock to foot sole was delivered (0.35 mA for 2 s). The device automatically recorded the number of times the rat drank water with electric shock within 3 minutes.

[5] = target: human MT1 receptor membrane protein (Homo sapiens (Human), UniProt P48039); experiment: MT1 receptor binding test ([3H]-Melotonin competition)
Procedure: The receptors included a MT1/MT2 receptor and a 5-HT2C receptor. The test was divided into two parts: prescreening and rescreening. The results of prescreening were expressed as the percentage of binding, and the results of rescreening were expressed as the IC50 value (in M, i.e., mol/L).
(3) Tris-HCl buffer formulation: 50 mM Tris-HCl Buffer, 1 mM EDTA, 5 mM MgCl2, 0.1% NaN3, and then a certain proportion of PMSF was added to make pH 7.4.
(4) The example compound to be tested was dissolved in DMSO and formulated as a stock solution of 10^−2 M, and then diluted with distilled water to a concentration gradient of […]. The prescreening of the MT receptor binding test was performed at the concentration of 10^−5 M; the prescreening of the 5-HT2C receptor binding test was performed at the concentrations of 10^−5 and 10^−7 M.
The statistical analysis was performed using GraphPad Prism 5.0 software. The formula for receptor binding test was: inhibition (%)=[(total CPM of binding−CPM of tube with drug)/(total CPM of binding−non-specific CPM)]×100%, wherein CPM was count of a radioactive intensity.
10 μL of receptor membrane protein MT1 or MT2 was added to all the tubes. In non-specific binding tubes, 50 μL of a corresponding unlabeled ligand Ago at a concentration of 10^4 M was added to a final concentration of 10 μM, and pre-reacted for 30 minutes. In test tubes, 30 μL of test drug (MT1: a concentration of 10^4-10^−10 M, MT2: a concentration of […]) was added, respectively; all tubes were added with 40 μL [^3H]-Melotonin, respectively. […] The filter paper was taken out and dried by baking, and then placed in a scintillation bottle. 1 mL of the scintillation liquid was added, and the radioactive intensity was measured by a liquid scintillation counter.

Chain of human MT1 receptor membrane protein (P48039 whole entry): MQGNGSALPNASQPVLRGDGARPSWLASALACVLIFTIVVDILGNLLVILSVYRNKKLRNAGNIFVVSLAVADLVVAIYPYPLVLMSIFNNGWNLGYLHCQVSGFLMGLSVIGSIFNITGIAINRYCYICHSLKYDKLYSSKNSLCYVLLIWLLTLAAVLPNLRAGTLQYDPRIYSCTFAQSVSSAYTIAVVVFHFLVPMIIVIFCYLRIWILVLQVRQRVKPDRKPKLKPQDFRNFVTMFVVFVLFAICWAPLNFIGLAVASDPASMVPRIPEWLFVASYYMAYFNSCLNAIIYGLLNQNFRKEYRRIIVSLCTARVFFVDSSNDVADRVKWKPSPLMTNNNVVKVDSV
Chain of CYP2C9 (P11712 whole entry): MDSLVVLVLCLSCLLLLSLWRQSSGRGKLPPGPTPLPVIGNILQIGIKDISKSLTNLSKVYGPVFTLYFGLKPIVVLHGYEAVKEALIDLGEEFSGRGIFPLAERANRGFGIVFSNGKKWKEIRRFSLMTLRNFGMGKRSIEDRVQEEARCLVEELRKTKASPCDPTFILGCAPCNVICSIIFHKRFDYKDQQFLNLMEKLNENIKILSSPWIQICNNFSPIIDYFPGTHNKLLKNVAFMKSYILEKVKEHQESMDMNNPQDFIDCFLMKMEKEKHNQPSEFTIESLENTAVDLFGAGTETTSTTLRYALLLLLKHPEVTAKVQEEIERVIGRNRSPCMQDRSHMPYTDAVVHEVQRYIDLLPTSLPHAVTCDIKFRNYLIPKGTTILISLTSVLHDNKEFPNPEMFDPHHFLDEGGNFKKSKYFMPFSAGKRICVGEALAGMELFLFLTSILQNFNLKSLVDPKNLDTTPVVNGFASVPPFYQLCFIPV

SMILES	Sucrose preference (%) Before modeling (chronic stress rat; group later dosed 20 mg/kg) [%]	Sucrose preference (%) After 4 weeks of administration (chronic stress rat; 10 mg/kg i.g. daily) [%]	Sucrose preference (%) After 4 weeks of administration (chronic stress rat; 20 mg/kg i.g. daily) [%]	Sucrose preference (%) After 4 weeks of administration (chronic stress rat; 40 mg/kg i.g. daily) [%]	Dwell time in the open arm (SD rats [1]; 10 mg/kg i.g.) [s]	Number of times entering the open arm (SD rats [1]; 10 mg/kg i.g.)	Dwell time in the open arm (SD rats [1]; 20 mg/kg i.g.) [s]	Number of times entering the open arm (SD rats [1]; 20 mg/kg i.g.)	Dwell time in the open arm (SD rats [1]; 40 mg/kg i.g.) [s]	Number of times entering the open arm (SD rats [1]; 40 mg/kg i.g.)	other results
COc1ccc2cccc(CCNC(C)=O)c2c1 [Agomelatine, reference compound]	65.6 ± 10.1	84.3 ± 3.6	66.6 ± 6.7	76.1 ± 5.3	126 ± 15	2.25 ± 0.4	196 ± 30	3.1 ± 0.8	170 ± 29	6.2 ± 1.0	patients with an increase in ALT/AST (three times above the normal upper limit) [2]: more than 1%; share metabolized by CYP2C9 (CYP2C9): about 10%; absolute bioavailability [3]: below 5%; oral absorption [3]: over 80%
[2H]C([2H])([2H])Oc1cc2c(CCNC(C)=O)cccc2cc1Cl [Example 1, N-(2-(6-chloro-7-deuteromethoxy-naphthalen-1-yl)ethyl)acetamide]	60.1 ± 4.4	78.4 ± 4.4	78.8 ± 6.1	83.3 ± 1.9	201 ± 17	8.8 ± 0.9	245 ± 6	10.89 ± 0.7	171 ± 27	6.3 ± 1.1	Sucrose preference (%) Before modeling (chronic stress rat; group later dosed 5 mg/kg): 55.5 ± 7.8%; Sucrose preference (%) After 4 weeks of administration (chronic stress rat; 5 mg/kg i.g. daily): 80.4 ± 3.1 %; Dwell time in the open arm (SD rats [1]; 5 mg/kg i.g.): 131 ± 30 s; Number of times entering the open arm (SD rats [1]; 5 mg/kg i.g.): 4.8 ± 0.9; Number of times drinking water with electric shock (s) (SD rats [4]; 5 mg/kg i.g. once a day): 76 ± 11 number of licks (count); Number of times drinking water with electric shock (s) (SD rats [4]; 10 mg/kg i.g. once a day): 159 ± 14 number of licks (count); Number of times drinking water with electric shock (s) (SD rats [4]; 20 mg/kg i.g. once a day): 172 ± 25 number of licks (count); Number of times drinking water with electric shock (s) (SD rats [4]; 40 mg/kg i.g. once a day): 213 ± 20 number of licks (count); MT1 binding ratio (I %) ([5]; prescreening, 10^−5 M): 84%; IC50 ([5]; rescreening): 0.45 ± 0.26 nM
